Assay results from US20210269451A1, “PYRIDINYL HETEROCYCLYL COMPOUNDS FOR THE TREATMENT OF AUTOIMMUNE DISEASE” (Hoffmann-La Roche Inc., priority 2018, published 2021).

How the values were obtained:
CYP2D6 = biological target: T1, CYP2D6 (Homo sapiens, UniProt P10635); test: CYP inhibition assay in human liver microsome; format: in vitro ADME; settings: human liver microsomes, probe dextromethorphan, dextromethorphan substrate, percentage inhibition <0: not or weak inhibitor, read-out: CYP 2D6 inhibition %@10 μM
T1 construct: tissue BD-Gentest 452117; host or cells: human liver microsomes
T1 sequence (P10635 whole entry): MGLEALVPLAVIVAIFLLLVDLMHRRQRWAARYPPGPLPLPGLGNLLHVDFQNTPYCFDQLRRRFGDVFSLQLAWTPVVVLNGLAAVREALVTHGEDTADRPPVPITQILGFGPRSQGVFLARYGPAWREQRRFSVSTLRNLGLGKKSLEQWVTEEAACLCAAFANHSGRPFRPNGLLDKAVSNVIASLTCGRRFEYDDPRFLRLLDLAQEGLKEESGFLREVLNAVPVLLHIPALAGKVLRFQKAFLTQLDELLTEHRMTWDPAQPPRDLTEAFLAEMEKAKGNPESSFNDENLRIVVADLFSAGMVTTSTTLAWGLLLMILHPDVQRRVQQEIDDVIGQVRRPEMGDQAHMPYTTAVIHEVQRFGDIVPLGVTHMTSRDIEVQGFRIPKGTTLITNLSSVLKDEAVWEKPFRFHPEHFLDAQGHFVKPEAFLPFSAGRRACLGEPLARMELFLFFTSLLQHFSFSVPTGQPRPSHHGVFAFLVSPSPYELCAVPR
Description: The compounds would be desirable to have minimal DDI liabilities. Therefore, the effects of compounds of formula (I) or (Ia) on CYP2D6 are determined.
This is a high throughput screening assay used for assessment of reversible inhibition of CYP2D6 activity of test compounds in human liver microsome (HLM) in early discovery stage.
10 mM DMSO stock solutions of test compounds were diluted in DMSO to generate 2 mM intermediate stock solution. 250 nL of intermediate stock solution were transferred in duplicate into 3 separate 384 well microtitre plates (assay-ready plates). A mixture of HLM and each substrate was made up. 45 μL of HLM substrate mix was then transferred to each well of an assay ready plate and mixed. The negative (solvent) and positive control (standard inhibitor for CYP 2D6) were included in each assay ready plate. The assay ready plate was warmed to 37° C. in an incubator over 10 minutes. 5 μL pre-warmed NADPH regenerating system was added to each incubation well to start the reaction. Final incubation volume was 50 μL. The assay plate then was placed back in the 37° C. incubator. After 10 minutes incubation, incubates were quenched by addition of 50 μL 100% acetonitrile containing internal standards (20 ng/mL D3-Dextrorphan). The supernatants were collected for RapidFire/MS/MS analysis.
RapidFire online solid phase extraction/sample injection system (Agilent) coupled with API4000 triple quadrupole mass spectrometer (AB Sciex) were used for sample analysis. The mobile phase composed of acetonitrile and water supplemented with 0.1% formic acid. A C4 solid phase extraction cartridge is used for sample separation. MS detection is achieved in positive ion MRM mode.
Data analysis Peak areas for substrate, metabolite and internal standard are determined using the RapidFire integrator software (version 3.6.12009.12296). Peak area ratios (PAR) of metabolite and internal standard (stable-labelled metabolite) are then calculated. The measurement window for each experiment is then defined:
PAR (0% activity), average PAR for all incubations containing concentrated inhibitor; Par (100% activity), average PAR for all incubations containing no inhibitor (DMSO controls);
% Activity (test inhibitor)=
=[PAR(test inhibitor)-PAR(0% activity)]/[PAR(100% activity)-PAR(0% activity)];
% Inhibition (test inhibitor)=100-% Activity (test inhibitor).

hTLR9 = biological target: T2, hTLR9 (Homo sapiens, UniProt Q9NR96); test: HEK293-Blue-hTLR-9 cells assay; format: cell-based; parameters: host or cells: HEK293-Blue-hTLR-9 (HEK293); settings: HEK293-Blue-hTLR9 cells, ODN2006 stimulation, 20 hrs, SEAP reporter; read-out: HEK/hTLR9 IC50
T2 sequence (Q9NR96 26-1032): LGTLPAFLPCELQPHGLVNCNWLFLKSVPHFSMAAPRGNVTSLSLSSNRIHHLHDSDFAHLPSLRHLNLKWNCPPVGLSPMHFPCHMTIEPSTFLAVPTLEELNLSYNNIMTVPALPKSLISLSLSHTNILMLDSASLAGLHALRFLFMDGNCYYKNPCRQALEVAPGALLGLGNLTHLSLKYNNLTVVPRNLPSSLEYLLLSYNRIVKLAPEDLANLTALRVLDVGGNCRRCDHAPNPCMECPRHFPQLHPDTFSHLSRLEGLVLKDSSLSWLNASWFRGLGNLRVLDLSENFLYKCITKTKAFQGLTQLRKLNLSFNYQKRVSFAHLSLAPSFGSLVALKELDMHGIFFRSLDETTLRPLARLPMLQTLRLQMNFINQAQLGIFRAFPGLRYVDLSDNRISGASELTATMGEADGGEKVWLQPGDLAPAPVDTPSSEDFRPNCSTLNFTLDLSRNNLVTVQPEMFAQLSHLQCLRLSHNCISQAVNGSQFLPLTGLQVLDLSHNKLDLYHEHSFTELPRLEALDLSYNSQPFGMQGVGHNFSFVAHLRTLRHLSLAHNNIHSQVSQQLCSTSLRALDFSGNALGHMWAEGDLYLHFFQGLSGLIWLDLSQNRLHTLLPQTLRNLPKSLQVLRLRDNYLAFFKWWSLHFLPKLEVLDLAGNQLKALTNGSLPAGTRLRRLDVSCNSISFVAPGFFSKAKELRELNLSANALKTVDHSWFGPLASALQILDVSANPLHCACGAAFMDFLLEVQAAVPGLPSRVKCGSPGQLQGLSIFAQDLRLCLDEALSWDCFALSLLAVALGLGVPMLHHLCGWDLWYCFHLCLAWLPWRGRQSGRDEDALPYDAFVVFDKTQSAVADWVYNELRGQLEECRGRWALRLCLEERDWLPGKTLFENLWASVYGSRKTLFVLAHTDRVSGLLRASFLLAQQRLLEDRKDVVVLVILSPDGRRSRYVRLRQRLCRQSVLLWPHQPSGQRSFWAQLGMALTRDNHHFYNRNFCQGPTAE
Description: The following tests were carried out in order to determine the activity of the compounds of formula (I) and (Ia) in HEK293-Blue-hTLR-7/8/9 cells assay.
HEK293-Blue-hTLR-9 cells assay:
A stable HEK293-Blue-hTLR-9 cell line was purchased from InvivoGen (Cat. #: hkb-htlr9, San Diego, Calif., USA). These cells were originally designed for studying the stimulation of human TLR9 by monitoring the activation of NE-KB. A SEAP (secreted embryonic alkaline phosphatase) reporter gene was placed under the control of the IFN-β minimal promoter fused to five NE-κB and AP-1-binding sites. The SEAP was induced by activating NE-κB and AP-1 via stimulating HEK-Blue hTLR9 cells with TLR9 ligands. Therefore the reporter expression was declined by TLR9 antagonist under the stimulation of a ligand, such as ODN2006 (Cat. #: tlrl-2006-1, Invivogen, San Diego, Calif., USA), for incubation of 20 hrs. The cell culture supernatant SEAP reporter activity was determined using QUANTI-Blue™ kit (Cat. #: rep-qb1, Invivogen, San Diego, Calif., USA) at a wavelength of 640 nm, a detection medium that turns purple or blue in the presence of alkaline phosphatase.
HEK293-Blue-hTLR9 cells were incubated at a density of 250,000˜450,000 cells/mL in a volume of 170 μL in a 96-well plate in Dulbecco's Modified Eagle's medium (DMEM) containing 4.5 g/L glucose, 50 U/mL penicillin, […], […], 2 mM L-glutamine, 10% (v/v) heat-inactivated fetal bovine serum with addition of 20 μL test compound in a serial dilution in the presence of final DMSO at 1% and 10 μL of 20 uM ODN2006 in above DMEM, perform incubation under 37° C. in a CO2 incubator for 20 hrs. Then 20 μL of the supernatant from each well was incubated with 180 μL Quanti-blue substrate solution at 37° C. for 2 h and the absorbance was read at 620˜655 nm using a spectrophotometer. The signaling pathway that TLR9 activation leads to downstream NE-κB activation has been widely accepted, and therefore similar reporter assay was modified for evaluating TLR9 antagonist.

inhibition at 10 min, 10 μM (CYP2D6)	IC50 (hTLR9)	SMILES
19%	< 32 nM	Cc1cc(N2CCOC3(CN(C[C@H]4CN(c5ccc(C#N)c6ncccc56)C[C@@H](C)O4)C3)C2)cc(C)n1 [Example 14]
4%	71 nM	Cc1cc(N2CCC23CN(C[C@H]2CN(c4ccc(C#N)c5ncccc45)C[C@@H](C)O2)C3)ccn1 [Example 15]
5%	38 nM	Cc1cc(N2CCOC3(CN(C[C@H]4CN(c5ccc(C#N)c6ncccc56)C[C@@H](C)O4)C3)C2)ccn1 [Example 16]
2%	< 32 nM	C[C@@H]1CN(c2ccc(C#N)c3ncccc23)C[C@H](CN[C@@H]2CCCN(c3ccnc(N)c3)C2)O1 [Example 21, 5-[(2S,6R)-2-[[[(3R)-1-(2-amino-4-pyridyl)-3-piperidyl]amino]methyl]-6-methyl-morpholin-4-yl]quinoline-8-carbonitrile]
2%	34 nM	C[C@@H]1CN(c2ccc(C#N)c3ncccc23)C[C@H](CN[C@H]2CCCN(c3ccnc(N)c3)C2)O1 [Example 22]
-9.5%	< 32 nM	Cc1cc(N2CCC[C@@H](NC[C@H]3CN(c4ccc(C#N)c5ncccc45)C[C@@H](C)O3)C2)cc(CO)n1 [Example 24]
8.5%	< 32 nM	Cc1cc(N2CCC[C@H](NC[C@H]3CN(c4ccc(C#N)c5ncccc45)C[C@@H](C)O3)C2)cc(CO)n1 [Example 25]
8.5%	88 nM	Cc1cc(N2CC(NC[C@H]3CN(c4ccc(C#N)c5ncccc45)C[C@@H](C)O3)C2)cc(CO)n1 [Example 30]
-4%	34 nM	Cc1cc(N2CCC[C@@H](N(C)C[C@H]3CN(c4ccc(C#N)c5ncccc45)C[C@@H](C)O3)C2)cc(CO)n1 [Example 35]
0%	39 nM	Cc1cc(N2CCC[C@H](N(C)C[C@H]3CN(c4ccc(C#N)c5ncccc45)C[C@@H](C)O3)C2)cc(CO)n1 [Example 38]
14.5%	41 nM	Cc1cc(N2CCN(C[C@H]3CN(c4ccc(C#N)c5ncccc45)C[C@@H](C)O3)CC2)cc(N)n1 [Example 40, 5-[(2S,6R)-2-[[4-(2-amino-6-methyl-4-pyridyl)piperazin-1-yl]methyl]-6-methyl-morpholin-4-yl]quinoline-8-carbonitrile]
-0.5%	< 32 nM	CNc1cc(N2CCN(C[C@H]3CN(c4ccc(C#N)c5ncccc45)C[C@@H](C)O3)CC2)cc(C)n1 [Example 42, 5-[(2R,6S)-2-methyl-6-[[4-[2-methyl-6-(methylamino)-4-pyridyl]piperazin-1-yl]methyl]morpholin-4-yl]quinoline-8-carbonitrile]
-13%	54 nM	Cc1cc(C2CCN(C[C@H]3CN(c4ccc(C#N)c5ncccc45)C[C@@H](C)O3)CC2)cc(N)n1 [Example 43, 5-[(2S,6R)-2-[[4-(2-amino-6-methyl-4-pyridyl)-1-piperidyl]methyl]-6-methyl-morpholin-4-yl]quinoline-8-carbonitrile]
5%	< 32 nM	Cc1cc(N2CC3(CN(C[C@H]4CN(c5ccc(C#N)c6ncccc56)C[C@@H](C)O4)C3)C2)cc(C(C)O)n1 (stereo partly drawn) [Example 44, 5-[(2S,6R)-2-[[2-[2-(1-hydroxyethyl)-6-methyl-4-pyridyl]-2,6-diazaspiro[3.3]heptan-6-yl]methyl]-6-methyl-morpholin-4-yl]quinoline-8-carbonitrile]
-2.5%	91 nM	C[C@@H]1CN(c2ccc(C#N)c3ncccc23)C[C@H](CN2CCN(c3cc(N)nc(CO)c3)CC2)O1 [Example 45, 5-[(2S,6R)-2-[[4-[2-amino-6-(hydroxymethyl)-4-pyridyl]piperazin-1-yl]methyl]-6-methyl-morpholin-4-yl]quinoline-8-carbonitrile]
17%	< 32 nM	CC(O)c1cc(N2CC3(CN(C[C@H]4CN(c5ccc(C#N)c6ncccc56)C[C@@H](C)O4)C3)C2)ccn1 (stereo partly drawn) [Example 46, 5-[(2S,6R)-2-[[2-[2-(1-hydroxyethyl)-4-pyridyl]-2,6-diazaspiro[3.3]heptan-6-yl]methyl]-6-methyl-morpholin-4-yl]quinoline-8-carbonitrile]
10.5%	134 nM	Cc1cc(N2CCN(C[C@H]3CN(c4ccc(C#N)c5ncccc45)C[C@@H](C)O3)CC2)cc(CO)n1 [Example 50]
-15.5%	35 nM	C[C@@H]1CN(c2ccc(C#N)c3ncccc23)C[C@H](CN2CC3(C2)CN(c2ccnc(CO)c2)CCO3)O1 [Example 51]
